Experimental data taken from patent US9657013B2, “Inhibitors of hepatitis B virus covalently closed circular DNA formation and their method of use” (priority 2012, dated 2017).

How the values were obtained:
[1] = cytotoxicity assay (MTT, CC50); format: cell-based; conditions: human, HepDE19 cells
Procedure: (§1) Cell plates were then incubated with compound dilutions and controls as described above, and addition of 3-[4,5-dimethylthiazol-2-yl]-2,5-diphenyltetrazolium bromide (MTT, Sigma-Aldrich) was added to a final concentration of 0.5 mg/ml (Mosmann, T. 1983). Plates were again incubated at 37° C. for 4 hrs, after which 10% SDS/0.01N HCl was added to each well in a volume equal to the medium (100 μl), followed by overnight incubation. Absorbance was read in the Rainbow spectrophotometer (Tecan US Inc., Durham, N.C.) at 570 nm (reference wavelength of 630 nm), and analyzed with XLfit 4.0 as described above.

HBV cccDNA = experiment: cccDNA inhibition assay (Southern blot of Hirt DNA); format: cell-based, hepatitis B virus; conditions: for inhibition at 3 µM / inhibition at 10 µM / inhibition at 30 µM / inhibition at 0.3 µM / inhibition at 1 µM: Hepatitis B virus, read-out: cccDNA inhibition % Reduction; for inhibition at 30 µM: Concentration 30 μM; for inhibition at 0.3 µM: Concentration 0.3 μM
Procedure: Cell cultures: HepG2.2.15 cells were maintained in DMEM/F12 medium (Mediatech, Manassas, Va.) supplemented with 10% fetal bovine serum, 100 U/ml penicillin and 100 μg/ml streptomycin, plus 400 μg/ml G418. Tetracycline inducible HBV producer cells, specifically HepDE19 and HepDES19 cells, were maintained in the same way as HepG2.2.15, but with the addition of 1 μg/ml tetracycline (Guo, H., D. Jiang, T. Zhou, A. Cuconati, T. M. Block, and J. T. Guo. 2007). To initiate HBV replication and cccDNA formation in HepDE19 and HepDES19 cells, tetracycline was withdrawn from the culture medium and the cells were cultured for the indicated time period.
Viral nucleic acid analysis: Total cellular RNA was extracted with TRIzol reagent (Invitrogen, Grand Island, N.Y.) by following manufacturer's directions. Ten microgram of total cellular RNA was resolved in 1.5% agarose gel containing 2.2 M formaldehyde and transferred onto Hybond-XL membrane (GE Healthcare, Piscataway, N.J.) in 20×SSC buffer. Intracellular hepadnaviral core DNA and cccDNA (Hirt DNA) were extracted as described previously (Guo, H., D. Jiang, T. Zhou, A. Cuconati, T. M. Block, and J. T. Guo. 2007. Guo, H., D. Jiang, T. Zhou, A. Cuconati, T. M. Block, and J. T. Guo. 2007. Guo, H., R. Mao, T. M. Block, and J. T. Guo. 2010. Guo, H., W. S. Mason, C. E. Aldrich, J. R. Saputelli, D. S. Miller, A. R. Jilbert, and J. E. Newbold. 2005). Half of the DNA samples recovered from one well of a 6-well-plate were resolved by electrophoresis into a 1.2% agarose gel and blotted onto Hybond-XL membrane. Membranes were probed with either an α-^32P-UTP (800 Ci/mmol, Perkin Elmer) labeled hepadnaviral minus (detecting DNA) or plus strand (detecting RNA) specific full-length riboprobe and exposed to a phosphorimager screen (Fuji Film, Tokyo, Japan). Hybridization signals were visualized by Typhoon FLA-7000 (GE Healthcare) and quantified with ImageQuantTL software (GE Healthcare). […]
Identification of compounds that inhibits cccDNA accumulation in HepDES19 cells: Compounds were tested on HepDES19 cells, which have a higher level of cccDNA production than HepDE19 cells (Guo, H., D. Jiang, T. Zhou, A. Cuconati, T. M. Block, and J. T. Guo. 2007). Briefly, after withdrawal of tetracycline, HepDES19 cells were left untreated, or were treated with compound at serial concentrations; tetracycline-free media was changed every other day with fresh compound supplementation. The concentration of DMSO in all experimental groups was normalized at 0.1%. The cells were harvested at day 12, viral RNA (top panel), core DNA (middle panel), and Hirt DNA (DP-rcDNA and cccDNA) (bottom panels) were extracted and analyzed by Northern blot and Southern blot, respectively. Shorter exposure of the Hirt DNA blot was used for the quantitative determination of DP-rcDNA signals. […] The reduction between DP-rcDNA and cccDNA was proportional compared with untreated control. […] Liu, C. P. Hu, and C. Chang. 2005. Guo, H., T. Zhou, D. Jiang, A. Cuconati, G. H. Xiao, T. M. Block, and J. T. Guo. 2007. Zhou, T., H. Guo, J. T. Guo, A. Cuconati, A. Mehta, and T. M. Block. 2006).

HepDE19 cells = experiment: cytotoxicity assay (MTT, CC50); format: cell-based
Procedure: as §1

SMILES	CC50 [1] [µM]	inhibition at 3 µM (HBV cccDNA; Concentration 3 μM) [%]	inhibition at 10 µM (HBV cccDNA; Concentration 10 μM) [%]	inhibition at 30 µM (HBV cccDNA) [%]	other results
O=C(CN(c1cc(C(F)(F)F)ccc1Cl)S(=O)(=O)c1ccc(F)cc1)NCc1ccncc1 [CCC-Lu25-20]	> 50	20	60	70	
Cc1nc2ccc(NC(=O)c3ccc(S(=O)(=O)N(C)Cc4ccccc4)cc3)cc2s1 [IHVR-13006]	5.9	50			inhibition at 0.3 µM (HBV cccDNA): 2%; inhibition at 1 µM (HBV cccDNA; Concentration 1 μM): 50%
O=C(NCc1ccncc1)c1cc2ccccc2n1S(=O)(=O)c1ccccc1 [IHVR 13022-1]	> 50	60	65		inhibition at 1 µM (HBV cccDNA; Concentration 1 μM): 50%
O=C(CN(c1cc(C(F)(F)F)ccc1F)S(=O)(=O)c1ccccc1)NCc1ccncc1 [CCC-1022-3]	> 50	50	75		inhibition at 1 µM (HBV cccDNA; Concentration 1 μM): 20%
COc1ccc(S(=O)(=O)N(CC(=O)NCc2ccncc2)c2cc(C(F)(F)F)ccc2Cl)cc1 [CCC-Lu25-39]	49.2	95	95	95	
CC(C)(C)OC(=O)N1CCC(CNC(=O)CN(c2cc(C(F)(F)F)ccc2Cl)S(=O)(=O)c2ccccc2)CC1 [CCC-Lu25-55]	19.1	95			
Cc1nc2cc(NC(=O)CN(c3cc(C(F)(F)F)ccc3Cl)S(=O)(=O)c3ccccc3)ccc2s1 [IHVR-13102]	> 50	30	80	30	
O=C(CN(c1cc(C(F)(F)F)ccc1Cl)S(=O)(=O)c1ccccc1)NCc1cccnc1 [CCC-Lu25-51]	> 50	80			
CN1CCN(c2ccc(CNC(=O)CN(c3cc(C(F)(F)F)ccc3Cl)S(=O)(=O)c3ccccc3)cc2)CC1 [IHVR-29022]	49.5	30			
O=C(CN(c1cc(C(F)(F)F)ccc1Cl)S(=O)(=O)c1ccc(C(F)(F)F)cc1)NCc1ccncc1 [CCC-Lu25-42]	> 50	90	95		inhibition at 1 µM (HBV cccDNA; Concentration 1 μM): 20%
CN1CCN(c2cccc(CNC(=O)CN(c3cc(C(F)(F)F)ccc3Cl)S(=O)(=O)c3ccccc3)c2)CC1 [IHVR-29023]	38.7	30			
O=C(CN(c1cc(C(F)(F)F)ccc1Cl)S(=O)(=O)c1ccc(C(F)(F)F)cc1Cl)NCc1ccncc1 [CCC-Lu25-50]	30.2	95			
Cc1cc2cc(NC(=O)c3ccc(S(=O)(=O)N(C)Cc4ccccc4)cc3)ccc2[nH]1 [IHVR-13003-1]	> 50	3	5	10	
O=C(CN(c1cc(C(F)(F)F)ccc1Cl)S(=O)(=O)c1ccc(Cl)cc1)NCc1ccncc1 [CCC-Lu25-32]	> 50	95	95	95	
CC(C)(C)CC(=O)NCCNC(=O)CN(c1cc(C(F)(F)F)ccc1F)S(=O)(=O)c1ccccc1 [CCC-Lu25-56]	28.4	70			
O=C(CN(c1cc(C(F)(F)F)ccc1Cl)S(=O)(=O)c1ccccc1)NCc1ccncc1 [IHVR-13106]					CC50 (HepDE19 cells): > 50 µM; cccDNA inhibition % Reduction (HBV cccDNA; Concentration 1 μM, 1 µM): 0%; cccDNA inhibition % Reduction (HBV cccDNA; Concentration 3 μM, 3 µM): 70%; cccDNA inhibition % Reduction (HBV cccDNA; Concentration 10 μM, 10 µM): 80%
O=C(NCc1ccncc1)C1CCCN1S(=O)(=O)c1ccccc1 (stereo not drawn) [IHVR-13108]	> 50	70	50		inhibition at 1 µM (HBV cccDNA; Concentration 1 μM): 10%
C[N+]1(C)CCC(CNC(=O)CN(c2cc(C(F)(F)F)ccc2Cl)S(=O)(=O)c2ccccc2)CC1 [CCC-Lu25-61-2]	> 50	30			
CN(Cc1ccccc1)S(=O)(=O)c1ccc(C(=O)NCc2ccncc2)cc1 [IHVR-13009]	> 50	15	15	30	
CN(Cc1ccccc1)S(=O)(=O)c1ccc(C(=O)Nc2ccc3ncsc3c2)cc1 [IHVR-13004]	34.1	50			inhibition at 0.3 µM (HBV cccDNA): 0%; inhibition at 1 µM (HBV cccDNA; Concentration 1 μM): 0%
O=C(CN(c1cc(C(F)(F)F)ccc1Cl)S(=O)(=O)c1ccccc1)NCc1ccncc1 [CCC-Lu25-22]	> 50		70	70	cccDNA inhibition % Reduction (HBV cccDNA; Concentration 3 μM, 3 µM): 40%
O=C(CN(c1cc(C(F)(F)F)ccc1Br)S(=O)(=O)c1ccccc1)NCc1ccncc1 [CCC-1002-2]	> 50	30	90		inhibition at 1 µM (HBV cccDNA; Concentration 1 μM): 30%
O=C(CN(c1cc(C(F)(F)F)ccc1Cl)S(=O)(=O)c1ccccc1)NCc1ccncn1 [CCC-Lu25-53]	> 50	70			
O=C(CN(c1cc(Cl)ccc1F)S(=O)(=O)c1ccccc1)NCc1ccncc1 [CCC-Lu25-41]	> 50	10	30	40	
Cc1ccc(S(=O)(=O)N(CC(=O)NCc2ccncc2)c2cc(C(F)(F)F)ccc2Cl)cc1 [CCC-Lu25-38]	> 50	95	95	95	
O=C(CN(c1cc(C(F)(F)F)ccc1Cl)S(=O)(=O)c1ccccc1)N1CCc2cnccc2C1 [CCC-Lu25-54]	> 50	50			
O=C(CN(c1cc(C(F)(F)F)ccc1Cl)S(=O)(=O)c1ccccc1)NCc1cncnc1 [CCC-Lu25-52]	> 50	80			
CN1CCC(CNC(=O)CN(c2cc(C(F)(F)F)ccc2Cl)S(=O)(=O)c2ccccc2)CC1 [CCC-Lu25-61-1]	> 50	30			
